{"source": "patent US20050075271A1", "about": "“Crystalline beta2 adrenergic receptor agonist” (priority 2002, published 2005)", "type_in_all_cases": "physicochemical", "key": {"[1]": {"assay": "Solid state stability testing of crystalline diHCl salt, ground and unground, 30 days (DSC, TGA, XRPD, HPLC)", "settings": "for crystal stability by DSC after exposure to elevated temperature and humidity: 40° C. and 75% relative humidity vs room temperature desiccator, ground and unground samples, dihydrochloride", "method": "A single lot of the crystalline diHCl salt of compound 1]prepared as in Example 6, was used to prepare four samples of approximately 30 mg each. Two samples were ground to fine particles with a mortar and pestle. Two samples, one ground and one that had not been processed, were stored in a closed chamber at 40° C. and 75% relative humidity for 30 days and two samples, one ground and one that had not been processed, were stored at room temperature in a desiccators for the same period. Samples were withdrawn for analysis by DSC and TGA at 11 days and by XRPD and HPLC at 30 days.\nX-ray powder diffraction patterns were obtained with a Shimadzu 6000 diffractometer using Cu Kα (40.0 kV, 35.0 mA) radiation. The analysis was performed with the goniometer running in continuous-scan mode of 2°/min with a step size of 0.02° over a range of 4 to 45°. Samples were prepared on glass specimen holders as a thin layer of powdered material.\nDifferential scanning calorimetry traces were obtained with a TA instruments model DSC2010. Samples were placed in sealed aluminum pans for analysis with an empty pan serving as the reference. Samples were equilibrated at 30° C. and heated at 5° C. per minute to a temperature of 300° C. The instrument was calibrated with an indium standard.\n(§1) Thermogravimetric analysis was conducted using a TA instruments model Q50. Samples were weighed in aluminum pans and heated from 50° C. to 300° C. at a rate of 10° C./min. Water content was estimated by measuring the total weight loss between 50° and 120° C. (a range in which no significant decomposition was observed).\n(§2) Unless otherwise indicated, HPLC analysis was conducted using a Zorbax RP-bonus, C14, 25 cm×4.6 mm column, equilibrated at 35° C. The mobile phases used were: A: 0.1% TFA in 98:2 water:acetonitrile; and B: 0.1% TFA in 10:90 water:acetonitrile. Detection was by UV absorbance at 215 nm. A flow rate of 1.0 mL/min and a gradient of 0 to 60% B over 20 minutes was utilized. The diHCl salt of compound 1 gave a retention time of 11.7 min."}, "[2]": {"assay": "Solid state stability of recrystallized diHCl salt, 6 months at 40° C. and 75% relative humidity", "method": "In another test, samples of the recrystallized diHCl salt of Example 7a were stored at 40° C. and 75% relative humidity.\nas §1, §2\nChiral purity was determined using a Beckman P/ACE MDQ capillary electrophoresis system. The analysis was performed at pH 2.5 using heptakis-(2,3,-diacetyl-6-sulfato)-β-cyclodextrin (HDAS-β-CD) as the chiral selector and using a 50 μm×31.2 cm fused silica capillary. Detection was by UV absorbance at 200 nm. The four stereoisomers migrate in the following order: SS, RS, SR, RR, where compound 1 is designated as RR."}, "[3]": {"assay": "Stability testing of aqueous nebulizer formulation (Formulation Example 1), HPLC, 1-4 months storage", "settings": "for Percent of active compound remaining: aqueous formulation 0.1 mg/g, pH 5.00", "method": "(§3) An aqueous aerosol formulation for nebulizer administration having 0.1 mg of the active compound, compound 1, per gram of solution was prepared by the following procedure. Citric acid (755.8 mg) was added to a vessel charged with 0.9% sodium chloride solution (325.7 g). The active ingredient (42.3 mg) was added to the sodium chloride solution and the resulting mixture was stirred for 5 min and sonicated for 7 min to dissolve the active ingredient. The intial pH of the solution was determined to be 2.54. 1 N NaOH (7.1 g) was slowly added to the solution to obtain a final pH of 5.00. An additional amount of 0.9% sodium chloride solution (26.7 g) was added and the resulting solution was stirred to provide the aqueous formulation (360.3 g).\nAliquots of the formulation prepared as in Example 1 were stored at −20° C., 5° C., room temperature, and 40° C. Samples were removed for analysis by HPLC at 1 month intervals. HPLC analysis was conducted using a Zorbax RP-bonus, C14, 25 cm×4.6 mm column, equilibrated at 35° C. The mobile phases used were: A: 0.1% TFA in 98:2 water:acetonitrile; and B: 0.1% TFA in 10:90 water:acetonitrile. Detection was by UV absorbance at 215 nm. A flow rate of 1.0 mL/min and a gradient of 0 to 60% B over 20 minutes was utilized. The percent of active compound 1 remaining after the indicated period, normalized to the sample stored at −20° C. is given in Table 1 below."}, "[4]": {"assay": "Second stability test of aqueous nebulizer formulation, HPLC, 4-9 months storage", "settings": "normalized to −20° C. sample", "method": "as §3\nIn a second stability test, aliquots were prepared and stored as above. Samples were removed for analysis by HPLC at various intervals. HPLC analysis was conducted using a MAC MOD Ace-5, C18, 25 cm×4.6 mm, 5 μm column, equilibrated at 30° C. The mobile phases were as described above. Detection was by UV absorbance at 244 nm. The initial condition was 6% phase B. A flow rate of 1.0 mL/min and a gradient of 6 to 30% B over 25 min, 30% to 60% B in 10 min and 60% to 100% B in 2 min were utilized. The retention time of compound 1 was approximately 20 min. The percent of active compound 1 remaining after the indicated period, normalized to the sample stored at −20° C. is given in Table 2 below."}, "[5]": {"assay": "Second stability test of aqueous nebulizer formulation, HPLC, 4-9 months storage", "settings": "nine months at 5° C."}, "[6]": {"settings": "40° C. and 75% relative humidity, 30 days, ground and unground"}, "[7]": {"settings": "6 months at 40° C. and 75% relative humidity"}}, "data": [{"smiles": "Cl.Cl.O=CNc1cc([C@@H](O)CNCCc2ccc(NC[C@H](O)c3ccccc3)cc2)ccc1O", "note": "[crystalline diHCl salt of compound 1, N-{2-[4-((R)-2-hydroxy-2-phenylethylamino)phenyl]ethyl}-(R)-2-hydroxy-2-(3-formamido-4-hydroxyphenyl)ethylamine dihydrochloride]", "values": [{"measurement": "crystal stability by DSC after exposure to elevated temperature and humidity", "setting": "[1]", "value": "no detectable effect on crystal stability"}, {"measurement": "crystal stability by DSC after exposure to elevated temperature and humidity", "setting": "[1]; listed as crystalline diHCl salt", "value": "no detectable difference"}, {"measurement": "XRPD pattern after exposure to heat and humidity", "setting": "[1]; [6]", "value": "not appreciably affected"}, {"measurement": "chemical degradation by HPLC", "setting": "[1]; [6]", "value": "no appreciable chemical degradation"}, {"measurement": "water associated with crystals by TGA after exposure to high relative humidity", "setting": "[1]; 40° C. and 75% relative humidity, ground and unground crystals, 11 days", "value": "no appreciable quantity of water becomes associated"}, {"measurement": "thermal stability", "setting": "[1]; elevated temperatures", "value": "thermally stable"}, {"measurement": "hygroscopicity", "setting": "[1]; exposed to the atmosphere for prolonged periods at high relative humidity", "value": "neither hygroscopic nor deliquescent"}, {"measurement": "decomposition on grinding into micronized particles", "setting": "[1]; ground into micronized particles", "value": "without significant decomposition"}, {"measurement": "water content", "setting": "[2]; 6 mo at 40° C. and 75% relative humidity", "value": 0.37, "unit": "%"}, {"measurement": "appearance of the material after storage", "setting": "[2]; [7]", "value": "no visible contamination"}, {"measurement": "chemical purity by HPLC analysis after storage", "setting": "[2]; [7]", "value": "essentially unchanged"}, {"measurement": "chiral purity after storage", "setting": "[2]; [7]", "value": "no change"}, {"measurement": "water content", "setting": "[2]; initially", "value": 0.12, "unit": "%"}]}, {"smiles": "O=CNc1cc([C@@H](O)CNCCc2ccc(NC[C@H](O)c3ccccc3)cc2)ccc1O", "note": "[compound 1, N-{2-[4-((R)-2-hydroxy-2-phenylethylamino)phenyl]ethyl}-(R)-2-hydroxy-2-(3-formamido-4-hydroxyphenyl)ethylamine]", "values": [{"measurement": "Percent of active compound remaining", "setting": "[3]; 5° C., 1 month, normalized to sample stored at −20° C.", "value": 101, "unit": "%"}, {"measurement": "Percent of active compound remaining", "setting": "[3]; 5° C., 2 months, normalized to −20° C. sample", "value": 100, "unit": "%"}, {"measurement": "Percent of active compound remaining", "setting": "[3]; 5° C., 3 months, normalized to −20° C. sample", "value": 100, "unit": "%"}, {"measurement": "Percent of active compound remaining", "setting": "[3]; 5° C., 4 months, normalized to −20° C. sample", "value": 99, "unit": "%"}, {"measurement": "Percent of active compound remaining", "setting": "[3]; 40° C., 1 month, normalized to −20° C. sample", "value": 94, "unit": "%"}, {"measurement": "Percent of active compound remaining", "setting": "[3]; 40° C., 2 months, normalized to −20° C. sample", "value": 87, "unit": "%"}, {"measurement": "Percent of active compound remaining", "setting": "[3]; 40° C., 3 months, normalized to −20° C. sample", "value": 72, "unit": "%"}, {"measurement": "Percent of active compound remaining", "setting": "[3]; 40° C., 4 months, normalized to −20° C. sample", "value": 74, "unit": "%"}, {"measurement": "chemical degradation of nebulizer solution upon storage (HPLC)", "setting": "[3]; nebulizer solution 0.1 mg compound 1 per gram, four months at room temperature", "value": "no unacceptable chemical degradation"}, {"measurement": "Percent of active compound remaining", "setting": "[3]; room temperature, 1 month, normalized to −20° C. sample", "value": 99, "unit": "%"}, {"measurement": "Percent of active compound remaining", "setting": "[3]; room temperature, 2 months, normalized to −20° C. sample", "value": 99, "unit": "%"}, {"measurement": "Percent of active compound remaining", "setting": "[3]; room temperature, 3 months, normalized to −20° C. sample", "value": 97, "unit": "%"}, {"measurement": "Percent of active compound remaining", "setting": "[3]; room temperature, 4 months, normalized to −20° C. sample", "value": 96, "unit": "%"}, {"measurement": "Percent of active compound remaining", "setting": "[4]; 5° C., 4 months", "value": 99, "unit": "%"}, {"measurement": "Percent of active compound remaining", "setting": "[4]; 5° C., 5 months", "value": 99, "unit": "%"}, {"measurement": "Percent of active compound remaining", "setting": "[4]; 5° C., 6 months", "value": 100, "unit": "%"}, {"measurement": "Percent of active compound remaining", "setting": "[4]; 5° C., 9 months", "value": 99, "unit": "%"}, {"measurement": "Percent of active compound remaining", "setting": "[4]; 40° C., 4 months", "value": 74, "unit": "%"}, {"measurement": "Percent of active compound remaining", "setting": "[4]; 40° C., 5 months", "value": 69, "unit": "%"}, {"measurement": "Percent of active compound remaining", "setting": "[4]; 40° C., 6 months", "value": 63, "unit": "%"}, {"measurement": "Percent of active compound remaining", "setting": "[4]; room temperature, 4 months", "value": 97, "unit": "%"}, {"measurement": "Percent of active compound remaining", "setting": "[4]; room temperature, 5 months", "value": 95, "unit": "%"}, {"measurement": "Percent of active compound remaining", "setting": "[4]; room temperature, 6 months", "value": 94, "unit": "%"}, {"measurement": "Percent of active compound remaining", "setting": "[4]; room temperature, 9 months", "value": 90, "unit": "%"}, {"measurement": "free base composition of nebulizer solution upon storage", "setting": "[5]", "value": "essentially unchanged"}]}]}
